# System: 292921-168-R tumor spheroid viability
# Assay: Anticancer human tumor 292921-168-R patient-derived pancreatic carcinoma cell line growth inhibition
# Conditions: spheroids with HUVEC and MSC; for IC50: curve of first compound; for viability, T/C: stronger effect = lower value
# Method in brief: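 Single agents and combinations were tested on spheroids built from tumor cells plus HUVEC and hMSC, at half-log dilutions starting at or near clinical Cmax, else 10 microM; final DMSO 0.25% (v/v).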
# [1] = second compound 0.003 µM, first compound 0.0316 µM
# [2] = second compound 0.003 µM, first compound 0.1 µM
# [3] = second compound 0.003 µM, first compound 0.316 µM
# [4] = second compound 0.003 µM, first compound 1 µM
# [5] = second compound 0.003 µM, first compound 3.16 µM
# [6] = second compound 0.003 µM, first compound 10 µM
# [7] = second compound 0.00949 µM, first compound 0.0316 µM
# [8] = second compound 0.00949 µM, first compound 0.1 µM
# [9] = second compound 0.00949 µM, first compound 0.316 µM
# [10] = second compound 0.00949 µM, first compound 1 µM
# [11] = second compound 0.00949 µM, first compound 3.16 µM
# [12] = second compound 0.00949 µM, first compound 10 µM
# [13] = second compound 0.03 µM, first compound 0.0316 µM
# [14] = second compound 0.03 µM, first compound 0.1 µM
# [15] = second compound 0.03 µM, first compound 0.316 µM
# [16] = second compound 0.03 µM, first compound 1 µM
# [17] = second compound 0.03 µM, first compound 3.16 µM
# [18] = second compound 0.03 µM, first compound 10 µM
# [19] = second compound 0.0949 µM, first compound 0.0316 µM
# [20] = second compound 0.0949 µM, first compound 0.1 µM
# [21] = second compound 0.0949 µM, first compound 0.316 µM
# [22] = second compound 0.0949 µM, first compound 1 µM
# [23] = second compound 0.0949 µM, first compound 3.16 µM
# [24] = second compound 0.0949 µM, first compound 10 µM
# [25] = second compound 0.3 µM, first compound 0.0316 µM
# [26] = second compound 0.3 µM, first compound 0.1 µM
# [27] = second compound 0.3 µM, first compound 0.316 µM
# [28] = second compound 0.3 µM, first compound 1 µM
# [29] = second compound 0.3 µM, first compound 3.16 µM
# [30] = second compound 0.3 µM, first compound 10 µM
# 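Further: spheroids exposed to compounds for 7 days.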
SMILES,IC50 (second compound 0.003 µM) [µM],IC50 (second compound 0.00949 µM) [µM],IC50 (second compound 0.03 µM) [µM],IC50 (second compound 0.0949 µM) [µM],IC50 (second compound 0.3 µM) [µM],"viability, T/C [1] [%]","viability, T/C [2] [%]","viability, T/C [3] [%]","viability, T/C [4] [%]","viability, T/C [5] [%]","viability, T/C [6] [%]","viability, T/C [7] [%]","viability, T/C [8] [%]","viability, T/C [9] [%]","viability, T/C [10] [%]","viability, T/C [11] [%]","viability, T/C [12] [%]","viability, T/C [13] [%]","viability, T/C [14] [%]","viability, T/C [15] [%]",further results
COc1cc(C)[nH]c(=O)c1CN1CCc2c(Cl)cc(C(OC)C3COC3)c(Cl)c2C1=O (stereo not given) + CC[C@@]1(O)C(=O)OCc2c1cc1n(c2=O)Cc2cc3c(CN(C)C)c(O)ccc3nc2-1,> 10,> 10,0.394,< 0.0316,< 0.0316,108,102,85,90.7,88.7,82.8,92.6,94.1,71.3,71.5,81.3,63.3,50.6,59.1,53.4,"viability, T/C [16]: 39.2%; viability, T/C [17]: 40.2%; viability, T/C [18]: 19.8%; viability, T/C [19]: 13.1%; viability, T/C [20]: 15.6%; viability, T/C [21]: 12.9%; viability, T/C [22]: 9.42%; viability, T/C [23]: 10.1%; viability, T/C [24]: 7.35%; viability, T/C [25]: 4.43%; viability, T/C [26]: 4.26%; viability, T/C [27]: 3.82%; viability, T/C [28]: 2.93%; viability, T/C [29]: 3.15%; viability, T/C [30]: 3.34%"
COc1ccc([C@@H](O)c2cc(-c3ncnc4cc(N5CCOCC5)ccc34)c(F)cc2Cl)nn1 + CC[C@@]1(O)C(=O)OCc2c1cc1n(c2=O)Cc2cc3c(CN(C)C)c(O)ccc3nc2-1,1.35,0.974,< 0.0316,< 0.0316,< 0.0316,102,94.4,77.8,55.3,34.8,20.8,77.5,74.5,71.9,45.6,32.9,17.9,41.8,38.7,34.5,"viability, T/C [16]: 25.8%; viability, T/C [17]: 21.5%; viability, T/C [18]: 17.1%; viability, T/C [19]: 10.8%; viability, T/C [20]: 12%; viability, T/C [21]: 12.5%; viability, T/C [22]: 13.2%; viability, T/C [23]: 14.5%; viability, T/C [24]: 13.8%; viability, T/C [25]: 3.98%; viability, T/C [26]: 3.78%; viability, T/C [27]: 4.06%; viability, T/C [28]: 4.72%; viability, T/C [29]: 6.62%; viability, T/C [30]: 8.28%"
[2H]c1nc(C)nc([2H])c1-c1cc(NC[C@@H](C)c2cccc3c(C(=O)NC)ccnc23)ncn1 + CC[C@@]1(O)C(=O)OCc2c1cc1n(c2=O)Cc2cc3c(CN(C)C)c(O)ccc3nc2-1,> 10,> 10,< 0.0316,< 0.0316,< 0.0316,101,87.8,96.9,102,93.8,86.9,83.3,81,77.7,76.9,79.8,70.9,49.2,35.9,41.5,"viability, T/C [16]: 37.4%; viability, T/C [17]: 37.4%; viability, T/C [18]: 23%; viability, T/C [19]: 12.1%; viability, T/C [20]: 13.4%; viability, T/C [21]: 12.2%; viability, T/C [22]: 12.6%; viability, T/C [23]: 9.08%; viability, T/C [24]: 8.57%; viability, T/C [25]: 3.57%; viability, T/C [26]: 4.5%; viability, T/C [27]: 3.67%; viability, T/C [28]: 3.37%; viability, T/C [29]: 3.59%; viability, T/C [30]: 2.83%"

# — PubChem BioAssay AID1845196 (Molecular Pharmacology Branch, DTP, NCI, 2023)
